Measured values as given in ChEMBL document CHEMBL3991601, “The target landscape of clinical kinase drugs” (Science, 2017).
pKd: −log10 of the molar value. The source made the active and inactive calls. Rule as the data show it, for most assays here: actives have a measured Kd and inactives only a lower limit.

Key:
Rab-like protein 3 = biological target: T1, Rab-like protein 3 (Homo sapiens, UniProt Q5HYI8)
T1 sequence (Q5HYI8 whole entry): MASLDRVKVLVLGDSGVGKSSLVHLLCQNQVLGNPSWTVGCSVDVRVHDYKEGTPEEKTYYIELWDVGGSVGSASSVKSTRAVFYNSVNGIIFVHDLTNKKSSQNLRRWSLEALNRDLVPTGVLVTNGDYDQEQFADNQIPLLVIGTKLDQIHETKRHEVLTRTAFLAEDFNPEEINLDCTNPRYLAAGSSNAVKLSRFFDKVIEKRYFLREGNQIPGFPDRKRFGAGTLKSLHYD

Myosin-14 = Myosin-14 (Homo sapiens, UniProt Q7Z406)
Myosin-14, sequence (Q7Z406 whole entry): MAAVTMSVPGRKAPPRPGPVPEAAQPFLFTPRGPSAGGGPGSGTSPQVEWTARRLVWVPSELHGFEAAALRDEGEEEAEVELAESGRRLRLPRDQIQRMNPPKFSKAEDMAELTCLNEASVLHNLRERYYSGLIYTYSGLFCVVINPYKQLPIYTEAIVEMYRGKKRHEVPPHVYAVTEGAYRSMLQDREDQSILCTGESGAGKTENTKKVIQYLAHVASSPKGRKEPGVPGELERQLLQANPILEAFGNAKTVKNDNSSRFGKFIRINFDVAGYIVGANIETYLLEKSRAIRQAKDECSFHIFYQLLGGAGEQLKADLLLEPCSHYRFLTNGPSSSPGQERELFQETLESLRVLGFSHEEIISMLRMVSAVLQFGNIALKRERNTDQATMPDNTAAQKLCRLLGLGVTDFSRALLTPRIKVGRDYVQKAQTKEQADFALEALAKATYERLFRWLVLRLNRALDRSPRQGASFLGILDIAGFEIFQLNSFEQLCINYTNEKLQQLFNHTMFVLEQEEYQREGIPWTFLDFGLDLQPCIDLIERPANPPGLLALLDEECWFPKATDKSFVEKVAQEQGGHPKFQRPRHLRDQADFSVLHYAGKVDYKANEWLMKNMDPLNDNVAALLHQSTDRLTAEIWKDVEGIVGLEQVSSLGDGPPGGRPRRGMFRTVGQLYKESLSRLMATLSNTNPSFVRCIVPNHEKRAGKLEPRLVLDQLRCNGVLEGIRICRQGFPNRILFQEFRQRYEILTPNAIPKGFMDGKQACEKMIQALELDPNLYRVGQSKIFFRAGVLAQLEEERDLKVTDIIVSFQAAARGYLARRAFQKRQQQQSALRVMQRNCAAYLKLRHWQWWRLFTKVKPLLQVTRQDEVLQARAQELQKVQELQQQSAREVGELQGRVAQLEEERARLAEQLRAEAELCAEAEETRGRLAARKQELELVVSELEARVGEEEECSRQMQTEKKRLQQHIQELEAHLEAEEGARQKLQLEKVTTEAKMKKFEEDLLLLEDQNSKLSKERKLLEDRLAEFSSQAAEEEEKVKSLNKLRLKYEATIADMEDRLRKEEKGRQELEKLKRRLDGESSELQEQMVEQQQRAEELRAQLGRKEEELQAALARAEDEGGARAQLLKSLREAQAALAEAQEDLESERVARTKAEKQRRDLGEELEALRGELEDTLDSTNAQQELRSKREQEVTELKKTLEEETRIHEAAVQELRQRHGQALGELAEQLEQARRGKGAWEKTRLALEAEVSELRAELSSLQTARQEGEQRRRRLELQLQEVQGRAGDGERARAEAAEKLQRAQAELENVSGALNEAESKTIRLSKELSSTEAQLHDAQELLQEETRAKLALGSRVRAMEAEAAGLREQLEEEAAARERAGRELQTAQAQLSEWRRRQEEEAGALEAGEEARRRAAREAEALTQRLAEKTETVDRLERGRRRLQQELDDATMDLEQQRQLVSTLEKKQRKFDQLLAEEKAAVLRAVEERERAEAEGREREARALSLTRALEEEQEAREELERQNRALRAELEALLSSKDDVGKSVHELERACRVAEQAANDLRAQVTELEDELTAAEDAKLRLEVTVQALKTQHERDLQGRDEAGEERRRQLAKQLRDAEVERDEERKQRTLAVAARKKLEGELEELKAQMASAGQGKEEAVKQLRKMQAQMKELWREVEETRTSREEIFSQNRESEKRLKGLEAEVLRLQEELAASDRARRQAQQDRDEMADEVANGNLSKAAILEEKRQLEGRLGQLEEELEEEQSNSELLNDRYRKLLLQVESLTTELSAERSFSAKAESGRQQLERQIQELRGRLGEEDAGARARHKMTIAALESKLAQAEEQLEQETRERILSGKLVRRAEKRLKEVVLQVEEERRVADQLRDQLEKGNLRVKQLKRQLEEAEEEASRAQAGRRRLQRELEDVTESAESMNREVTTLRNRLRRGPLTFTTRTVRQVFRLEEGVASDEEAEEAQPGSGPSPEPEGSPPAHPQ

[1] = biological target: Mitogen-activated protein kinase kinase kinase kinase 1 (Homo sapiens, UniProt Q92918)
[2] = biological target: TRAF2 and NCK-interacting protein kinase (Homo sapiens, UniProt Q9UKE5)
[3] = biological target: Bone morphogenetic protein receptor type-1B (Homo sapiens, UniProt O00238)
[4] = biological target: Mitogen-activated protein kinase 3 (Homo sapiens, UniProt P27361)
[5] = biological target: T2, Beta-adrenergic receptor kinase 1 (Homo sapiens, UniProt P25098)
T2 sequence (P25098 whole entry): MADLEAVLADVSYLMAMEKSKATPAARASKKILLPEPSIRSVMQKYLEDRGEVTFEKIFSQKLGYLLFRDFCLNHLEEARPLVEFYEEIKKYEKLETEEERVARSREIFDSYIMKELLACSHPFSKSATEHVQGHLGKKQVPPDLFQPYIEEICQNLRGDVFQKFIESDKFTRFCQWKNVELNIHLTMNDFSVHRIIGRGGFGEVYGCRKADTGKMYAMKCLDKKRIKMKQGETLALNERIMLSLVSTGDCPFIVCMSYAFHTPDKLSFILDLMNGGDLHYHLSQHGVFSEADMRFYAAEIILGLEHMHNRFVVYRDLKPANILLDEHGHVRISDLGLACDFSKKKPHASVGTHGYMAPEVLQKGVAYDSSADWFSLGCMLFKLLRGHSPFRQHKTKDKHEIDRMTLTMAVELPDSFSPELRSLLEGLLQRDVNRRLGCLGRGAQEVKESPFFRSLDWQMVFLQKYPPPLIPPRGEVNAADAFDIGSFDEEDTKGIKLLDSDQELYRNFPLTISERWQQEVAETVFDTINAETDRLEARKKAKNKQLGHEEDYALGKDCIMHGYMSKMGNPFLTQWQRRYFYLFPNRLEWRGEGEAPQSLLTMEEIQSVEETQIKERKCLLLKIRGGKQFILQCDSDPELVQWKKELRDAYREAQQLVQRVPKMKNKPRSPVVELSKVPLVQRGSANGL

[6] = biological target: Dual specificity testis-specific protein kinase 1 (Homo sapiens, UniProt Q15569)
[7] = biological target: Tyrosine-protein kinase BTK (Homo sapiens, UniProt Q06187)
Tyrosine-protein kinase BTK, sequence (Q06187 whole entry): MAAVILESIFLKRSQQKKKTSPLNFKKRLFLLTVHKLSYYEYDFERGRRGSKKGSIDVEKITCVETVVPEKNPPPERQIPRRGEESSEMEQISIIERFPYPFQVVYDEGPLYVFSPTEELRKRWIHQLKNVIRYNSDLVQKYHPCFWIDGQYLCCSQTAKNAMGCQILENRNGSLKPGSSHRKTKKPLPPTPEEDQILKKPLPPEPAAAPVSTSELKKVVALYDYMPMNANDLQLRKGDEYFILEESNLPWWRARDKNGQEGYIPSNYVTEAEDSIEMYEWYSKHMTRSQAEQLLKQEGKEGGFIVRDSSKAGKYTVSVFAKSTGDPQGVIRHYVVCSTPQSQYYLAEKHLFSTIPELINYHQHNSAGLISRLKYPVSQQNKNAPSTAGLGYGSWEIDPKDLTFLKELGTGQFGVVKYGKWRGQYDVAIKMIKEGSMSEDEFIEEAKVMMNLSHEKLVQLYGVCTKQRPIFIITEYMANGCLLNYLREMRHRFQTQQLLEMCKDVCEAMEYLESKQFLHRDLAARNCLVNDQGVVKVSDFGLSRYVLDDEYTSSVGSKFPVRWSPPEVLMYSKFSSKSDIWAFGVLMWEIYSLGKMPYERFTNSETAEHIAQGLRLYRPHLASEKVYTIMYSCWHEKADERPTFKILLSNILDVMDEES

[8] = biological target: Casein kinase II subunit alpha' (Homo sapiens, UniProt P19784)
[9] = biological target: Glycogen synthase kinase-3 beta (Homo sapiens, UniProt P49841)
Glycogen synthase kinase-3 beta, sequence (P49841 whole entry): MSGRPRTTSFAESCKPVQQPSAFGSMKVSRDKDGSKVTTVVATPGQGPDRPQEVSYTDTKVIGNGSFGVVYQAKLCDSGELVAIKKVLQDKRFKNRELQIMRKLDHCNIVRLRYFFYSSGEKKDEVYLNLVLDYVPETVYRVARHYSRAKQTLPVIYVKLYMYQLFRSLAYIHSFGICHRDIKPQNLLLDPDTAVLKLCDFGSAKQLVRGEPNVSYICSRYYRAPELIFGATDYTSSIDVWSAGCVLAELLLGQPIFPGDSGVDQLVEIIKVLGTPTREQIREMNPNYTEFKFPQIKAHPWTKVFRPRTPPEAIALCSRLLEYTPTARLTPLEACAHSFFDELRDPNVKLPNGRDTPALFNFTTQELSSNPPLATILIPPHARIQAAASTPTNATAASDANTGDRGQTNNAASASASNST

[10] = biological target: MAP kinase-activated protein kinase 2 (Homo sapiens, UniProt P49137)
MAP kinase-activated protein kinase 2, sequence (P49137 whole entry): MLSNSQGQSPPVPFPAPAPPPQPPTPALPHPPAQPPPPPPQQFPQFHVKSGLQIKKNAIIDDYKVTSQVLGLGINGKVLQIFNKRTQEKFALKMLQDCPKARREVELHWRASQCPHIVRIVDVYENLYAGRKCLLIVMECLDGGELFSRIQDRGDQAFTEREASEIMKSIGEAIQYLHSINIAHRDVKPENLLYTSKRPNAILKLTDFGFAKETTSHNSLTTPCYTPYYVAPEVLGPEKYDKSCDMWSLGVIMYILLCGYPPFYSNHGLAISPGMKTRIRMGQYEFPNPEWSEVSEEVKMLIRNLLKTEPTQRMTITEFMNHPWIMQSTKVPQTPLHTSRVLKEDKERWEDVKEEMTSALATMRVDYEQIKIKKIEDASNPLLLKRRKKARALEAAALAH

[11] = biological target: Mitogen-activated protein kinase 9 (Homo sapiens, UniProt P45984)
Mitogen-activated protein kinase 9, sequence (P45984 whole entry): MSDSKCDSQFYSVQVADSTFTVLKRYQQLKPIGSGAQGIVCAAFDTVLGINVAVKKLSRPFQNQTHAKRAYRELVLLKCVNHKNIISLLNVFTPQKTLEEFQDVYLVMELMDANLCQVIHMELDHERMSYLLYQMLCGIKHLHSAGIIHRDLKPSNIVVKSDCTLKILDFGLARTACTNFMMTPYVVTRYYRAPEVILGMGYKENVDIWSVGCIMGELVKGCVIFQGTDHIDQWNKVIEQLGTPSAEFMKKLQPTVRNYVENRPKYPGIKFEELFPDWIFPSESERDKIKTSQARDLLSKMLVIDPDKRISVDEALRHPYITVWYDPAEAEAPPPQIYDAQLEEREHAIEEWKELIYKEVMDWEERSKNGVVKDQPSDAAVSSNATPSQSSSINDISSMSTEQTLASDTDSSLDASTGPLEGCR

[12] = biological target: Cyclin-dependent kinase 5 (Homo sapiens, UniProt Q00535)
Cyclin-dependent kinase 5, sequence (Q00535 whole entry): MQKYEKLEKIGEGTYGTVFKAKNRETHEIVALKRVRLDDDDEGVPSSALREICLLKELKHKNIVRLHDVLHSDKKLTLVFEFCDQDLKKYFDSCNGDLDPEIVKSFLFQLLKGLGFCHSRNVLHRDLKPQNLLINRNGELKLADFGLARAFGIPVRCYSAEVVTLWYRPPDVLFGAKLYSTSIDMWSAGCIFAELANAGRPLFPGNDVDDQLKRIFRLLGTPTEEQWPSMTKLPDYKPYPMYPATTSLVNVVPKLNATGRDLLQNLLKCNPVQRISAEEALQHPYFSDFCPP

[13] = biological target: Mitogen-activated protein kinase kinase kinase kinase 5 (Homo sapiens, UniProt Q9Y4K4)
Mitogen-activated protein kinase kinase kinase kinase 5, sequence (Q9Y4K4 whole entry): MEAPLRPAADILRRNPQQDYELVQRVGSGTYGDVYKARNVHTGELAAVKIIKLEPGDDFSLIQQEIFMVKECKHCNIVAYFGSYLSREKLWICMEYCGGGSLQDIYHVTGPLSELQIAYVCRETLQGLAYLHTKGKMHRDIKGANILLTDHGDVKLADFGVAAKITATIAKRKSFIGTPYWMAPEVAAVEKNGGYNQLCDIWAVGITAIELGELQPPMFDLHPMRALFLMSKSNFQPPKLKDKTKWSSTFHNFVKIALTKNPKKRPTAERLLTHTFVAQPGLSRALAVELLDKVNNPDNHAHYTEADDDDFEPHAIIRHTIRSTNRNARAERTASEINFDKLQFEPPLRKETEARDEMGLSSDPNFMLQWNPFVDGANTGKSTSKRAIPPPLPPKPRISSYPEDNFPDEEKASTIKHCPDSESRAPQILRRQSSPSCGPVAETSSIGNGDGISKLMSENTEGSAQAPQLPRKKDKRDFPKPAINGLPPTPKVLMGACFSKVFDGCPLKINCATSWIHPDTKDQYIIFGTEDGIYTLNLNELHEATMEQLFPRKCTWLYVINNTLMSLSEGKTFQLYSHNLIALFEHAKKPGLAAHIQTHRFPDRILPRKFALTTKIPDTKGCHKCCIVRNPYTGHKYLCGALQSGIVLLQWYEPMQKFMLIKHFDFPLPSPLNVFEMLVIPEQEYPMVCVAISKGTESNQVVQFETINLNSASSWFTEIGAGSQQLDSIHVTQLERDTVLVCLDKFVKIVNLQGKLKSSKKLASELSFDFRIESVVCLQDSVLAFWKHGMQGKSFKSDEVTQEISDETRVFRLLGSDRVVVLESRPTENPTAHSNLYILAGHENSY

[14] = biological target: T3, Non-receptor tyrosine-protein kinase TNK1 (Homo sapiens, UniProt Q13470)
T3 sequence (Q13470 whole entry): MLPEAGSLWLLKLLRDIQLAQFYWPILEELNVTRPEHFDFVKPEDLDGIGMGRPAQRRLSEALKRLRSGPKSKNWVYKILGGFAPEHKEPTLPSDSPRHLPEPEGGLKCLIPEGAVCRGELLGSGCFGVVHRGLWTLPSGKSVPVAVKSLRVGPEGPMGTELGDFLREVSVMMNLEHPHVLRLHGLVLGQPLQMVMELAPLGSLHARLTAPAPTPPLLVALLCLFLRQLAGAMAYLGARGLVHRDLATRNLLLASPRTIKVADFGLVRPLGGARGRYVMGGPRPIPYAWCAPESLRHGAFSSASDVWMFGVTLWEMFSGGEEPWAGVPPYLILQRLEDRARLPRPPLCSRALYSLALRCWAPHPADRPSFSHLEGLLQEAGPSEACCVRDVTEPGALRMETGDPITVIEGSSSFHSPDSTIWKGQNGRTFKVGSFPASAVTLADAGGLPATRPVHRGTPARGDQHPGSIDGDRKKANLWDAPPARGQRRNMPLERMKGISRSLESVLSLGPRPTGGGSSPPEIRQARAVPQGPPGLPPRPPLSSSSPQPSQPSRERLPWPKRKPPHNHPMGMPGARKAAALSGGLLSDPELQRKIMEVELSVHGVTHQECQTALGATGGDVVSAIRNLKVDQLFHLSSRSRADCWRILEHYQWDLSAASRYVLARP

[15] = biological target: Serine/threonine-protein kinase PAK 4 (Homo sapiens, UniProt O96013)
[16] = biological target: Cyclin-dependent kinase 2 (Homo sapiens, UniProt P24941)
Also: in the data inactive means no Kd found up to 30 µM.

Kd (Rab-like protein 3)	Kd (Myosin-14)	Kd [1]	Kd [2]	Kd [3]	Kd [4]	Kd [5]	Kd [6]	Kd [8]	pKd [2]	SMILES	Kd [7]	Kd [9]	Kd [10]	Kd [11]	Kd [12]	Kd [13]	Kd [14]	Kd [15]	Kd [16]
> 30 µM (inactive)	> 30 µM (inactive)	> 30 µM (inactive)	> 30 µM (inactive)	> 30 µM (inactive)	> 30 µM (inactive)	> 30 µM (inactive)	> 30 µM (inactive)	–	–	COc1cc(Nc2ncc3c(n2)-c2ccc(Cl)cc2C(c2c(F)cccc2OC)=NC3)ccc1C(=O)O [ALISERTIB]	–	–	–	–	–	–	–	–	–
> 30 µM (inactive)	> 30 µM (inactive)	0.214 µM (active)	0.801 µM (active)	0.021 µM (active)	> 30 µM (inactive)	> 30 µM (inactive)	> 30 µM (inactive)	0.065 µM (active)	–	O=C(Nc1c[nH]nc1-c1nc2cc(CN3CCOCC3)ccc2[nH]1)NC1CC1 [AT-9283]	0.537 µM (active)	0.007 µM (active)	> 30 µM (inactive)	0.509 µM (active)	–	–	–	–	–
–	> 30 µM (inactive)	–	–	–	–	> 30 µM (inactive)	–	–	–	CNC(=O)c1ccccc1Sc1ccc2c(/C=C/c3ccccn3)n[nH]c2c1 [AXITINIB]	–	–	–	–	–	–	–	–	–
> 30 µM (inactive)	> 30 µM (inactive)	–	–	–	–	> 30 µM (inactive)	–	–	–	C[C@@H](Oc1cc(-n2cnc3ccc(CN4CCN(C)CC4)cc32)sc1C(N)=O)c1ccccc1C(F)(F)F [GSK-461364]	–	–	–	–	–	–	–	–	–
> 30 µM (inactive)	> 30 µM (inactive)	> 30 µM (inactive)	> 30 µM (inactive)	–	> 30 µM (inactive)	–	–	> 30 µM (inactive)	–	CCn1cc(-c2ccnc3[nH]c(-c4cccc(CN(C)C)c4)cc23)c(-c2ccc(NC(=O)N(C)C)cc2)n1 [GSK-1070916]	–	> 30 µM (inactive)	–	–	> 30 µM (inactive)	> 30 µM (inactive)	–	> 30 µM (inactive)	> 30 µM (inactive)
> 30 µM (inactive)	> 30 µM (inactive)	0.212 µM (active)	–	> 30 µM (inactive)	> 30 µM (inactive)	> 30 µM (inactive)	> 30 µM (inactive)	3.5 µM (active)	–	CNC(=O)c1nn(C)c2c1C(C)(C)Cc1cnc(Nc3ccc(N4CCN(C)CC4)cc3)nc1-2 [MILCICLIB]	> 30 µM (inactive)	> 30 µM (inactive)	> 30 µM (inactive)	> 30 µM (inactive)	–	10 µM (active)	5.68 µM (active)	> 30 µM (inactive)	0.739 µM (active)
> 30 µM (inactive)	> 30 µM (inactive)	2.02 µM (active)	–	> 30 µM (inactive)	> 30 µM (inactive)	> 30 µM (inactive)	> 30 µM (inactive)	2.1 µM (active)	7.92	Cc1[nH]c(/C=C2\C(=O)Nc3ccccc32)c(C)c1CCC(=O)O [ORANTINIB]	–	–	–	–	–	–	–	–	–
> 30 µM (inactive)	> 30 µM (inactive)	> 30 µM (inactive)	> 30 µM (inactive)	> 30 µM (inactive)	> 30 µM (inactive)	> 30 µM (inactive)	1.42 µM (active)	> 30 µM (inactive)	–	NC(=O)c1c(OCc2c(F)cc(Br)cc2F)nsc1NC(=O)NCCCCN1CCCC1 [OSI-632]	–	–	–	–	–	–	> 30 µM (inactive)	–	–
> 30 µM (inactive)	–	> 30 µM (inactive)	0.746 µM (active)	> 30 µM (inactive)	> 30 µM (inactive)	> 30 µM (inactive)	> 30 µM (inactive)	2.64 µM (active)	–	CC(=O)NCC(=O)N1[C@@H]2CC[C@H]1c1ccc(Nc3ncc(C(F)(F)F)c(NC4CCC4)n3)cc12 [PF-03814735]	–	–	–	–	–	–	0.369 µM (active)	–	–
> 30 µM (inactive)	> 30 µM (inactive)	–	–	–	–	–	–	–	–	O=C(NOCCO)c1cc(CN2OCCCC2=O)c(F)c(F)c1Nc1ccc(I)cc1F [RO-4987655]	–	–	–	–	–	–	–	–	–
–	> 30 µM (inactive)	–	–	–	–	> 30 µM (inactive)	–	–	–	N#CC[C@H](C1CCCC1)n1cc(-c2ncnc3[nH]ccc23)cn1 [RUXOLITINIB]	–	–	–	–	–	–	–	–	–

SMILES	Kd (Rab-like protein 3)	Kd (Myosin-14)	Kd [1]	Kd [2]	Kd [3]	Kd [4]	Kd [5]	Kd [6]	Kd [8]	pKd [2]	Kd [7]	Kd [9]	Kd [10]	Kd [11]	Kd [12]	Kd [13]	Kd [14]	Kd [15]	Kd [16]
NC(=O)Nc1cc(-c2cccc(F)c2)sc1C(=O)N[C@H]1CCCNC1 [AZD-7762]	> 30 µM (inactive)	> 30 µM (inactive)	–	0.094 µM (active)	> 30 µM (inactive)	> 30 µM (inactive)	> 30 µM (inactive)	> 30 µM (inactive)	3.15 µM (active)	–	3.07 µM (active)	> 30 µM (inactive)	> 30 µM (inactive)	> 30 µM (inactive)	> 30 µM (inactive)	0.197 µM (active)	> 30 µM (inactive)	0.166 µM (active)	> 30 µM (inactive)
CC(C)(C)c1nc(-c2cccc(NS(=O)(=O)c3c(F)cccc3F)c2F)c(-c2ccnc(N)n2)s1 [DABRAFENIB]	> 30 µM (inactive)	> 30 µM (inactive)	> 30 µM (inactive)	> 30 µM (inactive)	> 30 µM (inactive)	> 30 µM (inactive)	> 30 µM (inactive)	> 30 µM (inactive)	–	–	–	–	–	–	1.07 µM (active)	> 30 µM (inactive)	0.066 µM (active)	> 30 µM (inactive)	0.019 µM (active)
Cn1cc(C2=C(c3cn(C4CCN(Cc5ccccn5)CC4)c4ccccc34)C(=O)NC2=O)c2ccccc21 [ENZASTAURIN]	> 30 µM (inactive)	> 30 µM (inactive)	–	–	–	–	> 30 µM (inactive)	–	–	–	–	–	–	–	–	–	–	–	–
CCOc1cc2ncc(C#N)c(Nc3ccc(F)c(Cl)c3)c2cc1NC(=O)/C=C/CN(C)C [PELITINIB]	> 30 µM (inactive)	> 30 µM (inactive)	1.1 µM (active)	–	> 30 µM (inactive)	> 30 µM (inactive)	> 30 µM (inactive)	> 30 µM (inactive)	> 30 µM (inactive)	–	0.514 µM (active)	> 30 µM (inactive)	> 30 µM (inactive)	> 30 µM (inactive)	> 30 µM (inactive)	0.042 µM (active)	> 30 µM (inactive)	> 30 µM (inactive)	> 30 µM (inactive)
CNC(=O)c1cc(Oc2ccc(NC(=O)Nc3cc(C(C)(C)C)nn3-c3ccc4ncccc4c3)c(F)c2)ccn1 [REBASTINIB]	> 30 µM (inactive)	> 30 µM (inactive)	0.566 µM (active)	1.88 µM (active)	> 30 µM (inactive)	> 30 µM (inactive)	> 30 µM (inactive)	> 30 µM (inactive)	> 30 µM (inactive)	–	1.22 µM (active)	> 30 µM (inactive)	4.69 µM (active)	0.98 µM (active)	1.5 µM (active)	–	0.055 µM (active)	> 30 µM (inactive)	0.199 µM (active)
